Assay results taken from BindingDB's records for doi:10.7270/Q2H70D5W (University of Pittsburgh, 2007).
pIC50: −log10 of the molar value.

Biological target: Gag-Pol polyprotein (Human immunodeficiency virus type 1 group M subtype B (isolate HXB2), UniProt P04585)
Assay: concentration-response of HIV-1 RNase H blockers – biochemical, probe assessment, dose response (AID 652)
Details: pH 8; 23 °C

`Cc1ccc(-n2nc(C)c3c2NC(=O)CSC3c2ccc3c(c2)OCO3)cc1` (stereo not drawn) [4-(1,3-benzodioxol-5-yl)-3-methyl-1-(4-methylphenyl)-2,4-dihydropyrazolo[3,4-e][1,4]thiazepin-7-one] and `Cc1ccc(-n2c(N)c(C(=O)N3CCOCC3)sc2=S)cc1` [4-amino-3-(4-methylphenyl)-5-(4-morpholinylcarbonyl)-1,3-thiazole-2(3H)-thione] are within 0.2 log units of each other in pIC50: 5.28 for the first, 5.31 for the second.

Going from `CCOC(=O)c1c(C2COc3ccccc3O2)csc1NC(=O)c1ccco1` (stereo not drawn) [4-(2,3-dihydro-1,4-benzodioxin-3-yl)-2-(2-furoylamino)thiophene-3-carboxylic acid ethyl ester] to `CCN(Cc1ccccc1)S(=O)(=O)c1ccc(C(=O)Nc2nnc(-c3ccccc3OC)o2)cc1` [4-[benzyl(ethyl)sulfamoyl]-N-[5-(2-methoxyphenyl)-1,3,4-oxadiazol-2-yl]benzamide], the pIC50 falls from 6.18 to 5.05 (1.13 log units). The first is the more potent here.

Compared with `COc1ccc(Cn2nnnc2C(c2cccnc2)N2CCN(c3ccc(O)cc3)CC2)cc1` (stereo not drawn) [4-(4-{[1-(4-Methoxy-benzyl)-1H-tetrazol-5-yl]-pyridin-3-yl-methyl}-piperazin-1-yl)-phenol], `COc1ccc(N2CCN(Cc3cc(=O)oc4cc(-c5ccccc5)c(O)cc34)CC2)cc1` [4-[[4-(4-methoxyphenyl)piperazin-1-yl]methyl]-6-oxidanyl-7-phenyl-chromen-2-one] is higher in pIC50: < 4.30 for the first, 5.41 for the second.

Compared with `CCn1c2ccccc2c2nc3cc(S(=O)(=O)N4CCOCC4)ccc3nc21` [4-(6-ethylindolo[2,3-b]quinoxalin-2-yl)sulfonylmorpholine], `Cc1nc(-c2cccc(S(=O)(=O)N3CCOCC3)c2)cs1` [4-[3-(2-methyl-1,3-thiazol-4-yl)phenyl]sulfonylmorpholine] is 0.77 log units lower in pIC50: 5.99 for the first, 5.22 for the second.

First: COc1cccc(-c2nnc(NC(=O)c3ccc(S(=O)(=O)N(CC(C)C)CC(C)C)cc3)o2)c1 [4-(diisobutylsulfamoyl)-N-[5-(3-methoxyphenyl)-1,3,4-oxadiazol-2-yl]benzamide]
Second: CCCN(CCC)S(=O)(=O)c1ccc(C(=O)Nc2nnc(-c3cccc(OC)c3)o2)cc1 [4-(dipropylsulfamoyl)-N-[5-(3-methoxyphenyl)-1,3,4-oxadiazol-2-yl]benzamide]
The pIC50 of the first is 0.65 log units higher: 5.32 for the first, 4.67 for the second. The first is the more potent here.

Compared with `COc1ccc(OC)c(Nc2nc(-c3ccc(O)c(O)c3)cs2)c1` [4-[2-(2,5-Dimethoxy-phenylamino)-thiazol-4-yl]-benzene-1,2-diol], `COc1ccc(N2CCN(Cc3cc(=O)oc4cc5c(cc34)CCCC5)CC2)cc1` [4-[[4-(4-methoxyphenyl)-1-piperazinyl]methyl]-6,7,8,9-tetrahydrobenzo[g][1]benzopyran-2-one] is 0.47 log units lower in pIC50: 5.83 for the first, 5.36 for the second. The first is the more potent here.

Compared with `O=C(CCCn1c(SCC(=O)c2ccc(O)c(O)c2)nc2ccccc2c1=O)NCC1CCCO1` (stereo not drawn) [4-[2-[2-(3,4-dihydroxyphenyl)-2-oxoethyl]sulfanyl-4-oxoquinazolin-3-yl]-N-(oxolan-2-ylmethyl)butanamide], `Nc1c(S(=O)(=O)c2cccc(Cl)c2)c2c(n1N=CC1=CC(=O)C(=O)C=C1)Nc1ccccc1N2` [4-[[2-azanyl-3-(3-chlorophenyl)sulfonyl-4,9-dihydropyrrolo[3,2-b]quinoxalin-1-yl]iminomethyl]cyclohexa-3,5-diene-1,2-dione] is 0.52 log units higher in pIC50: 6.06 for the first, 6.58 for the second.

`Nc1ccc(-c2nnc(-c3ccc(-c4ccccc4)cc3)o2)cc1` [4-[5-(4-phenylphenyl)-1,3,4-oxadiazol-2-yl]aniline] and `Cc1ccc(-n2c(N)c(C(N)=O)sc2=S)cc1` [4-amino-3-(4-methylphenyl)-2-sulfanylidene-1,3-thiazole-5-carboxamide] are within 0.2 log units of each other in pIC50: 5.57 for the first, 5.59 for the second.

First: Cc1ccc(-n2c(N)c(C(=O)N3CCCCC3)sc2=S)cc1 [4-amino-3-(4-methylphenyl)-5-(1-piperidinylcarbonyl)-1,3-thiazole-2(3H)-thione]
Second: Cc1ccc(-n2c(N)c(C(=O)N3CCN(C)CC3)sc2=S)cc1 [4-amino-3-(4-methylphenyl)-5-[(4-methyl-1-piperazinyl)carbonyl]-1,3-thiazole-2(3H)-thione]
The pIC50 of the first is higher: 5.64 for the first, < 4.30 for the second.
